Each structure is given as a SMILES string.

In test [1] the target is T1, KHK-C (Homo sapiens (Human), UniProt P50053). Kind of test: Assay C: KHK assay at high fructose (8 mM) and ATP (2 mM), 1 nM KHK-C. Type of test: biochemical. Conditions: read-out: IC50 (nM) Assay C 1 nM KHK-C, 8 mM fructose, 2 mM ATP, avg of (#) runs.
Description: (§1) A screening assay was developed for KHK involving a coupled enzyme system which used the product of the KHK reaction to drive an absorbance signal in kinetic mode. KHK takes fructose and ATP and converts it to F1P and ADP. ADP then serves as substrate to pyruvate kinase which converts PEP to pyruvate which is then reduced to lactate by lactate dehydrogenase with the concomitant oxidation of NADH to NAD+. The resulting depletion of NADH was monitored by measuring absorbance at 340 nm.
(§2) Recombinant human KHK-C and KHK-A were expressed in E. coli as a His-tagged fusion protein and purified using Ni-NTA chromatography.
A third KHK assay, referred to as Assay C, was performed at high fructose and ATP concentrations, conditions that would be more consistent with physiological concentrations of the natural substrates of the KHK enzyme. Assay C was conducted as described above for Assay B except using 8 mM fructose and 2 mM ATP, and compound concentration range of 10 pM to 1 μM or 50 pM to 5 μM using half-log dilution scheme.
Test [2] concerns the target KHK-A (Homo sapiens (Human), UniProt P50053). Kind of test: Assay D: KHK assay with 1 nM human KHK-A. Conditions: read-out: IC50 (nM) Assay D 1 nM KHK-A, 8 mM fructose, 0.2 mM ATP, avg of (#) runs.
Description: as §1
A fourth assay, referred to as Assay D, was performed using human KHK-A to assess the potency of compounds in inhibiting activity of this enzyme. […] Reaction rates and IC50 values were calculated as described above.
For test [3], the target named is T1, KHK-C. As to the kind of experiment: Assay A: coupled-enzyme KHK absorbance assay, 10 nM KHK-C. Conditions: 10 nM KHK-C, 0.8 mM fructose, 0.2 mM ATP, avg of (#) runs.
Description: as §1, §2
Compounds were prepared in DMSO as 4 mM stocks, diluted using an 11-point half-log scheme on a Biomek FX (Beckman Coulter), and incubated at rt for 30 minutes with the reaction mixture containing 50 mM HEPES, pH 7.4, 140 mM KCl, 3.5 mM MgCl2, 0.8 mM fructose, 2 mM TCEP, 0.8 mM PEP, 0.7 mM NADH, 0.01% Triton X-100, 30 U/mL pyruvate kinase-lactate dehydrogenase, and 10 nM purified KHK-C. The compound concentration in each well ranged from 1 nM to 100 μM. The reaction was initiated with the addition of 0.2 mM ATP. The absorbance was measured for 30 minutes on a SpectraMax reader (Molecular Devices) after ATP was added. The concentrations provided are based on the final mixture volume of 40 μL (referred to as the final concentration).
Controls: N8-(cyclopropylmethyl)-N4-(2-(methylthio)phenyl)-2-(piperazin-1-yl)pyrimido[5,4-d]pyrimidine-4,8-diamine at 2 μM final concentration was used as high percent effect (HPE) control, and 2.5% DMSO which was present in all reaction wells was used as zero percent effect (ZPE) control. Reaction rates were obtained for 300-1800 seconds time window in units of 1000*AU/min (absorbance unit per minute), and average values for ZPE and HPE controls from 16 wells each were calculated, AveZPE and AveHPE, respectively.
Percent inhibition (% inhibition) was calculated for each well using this equation:
For each compound tested, the IC50 provided is the average based on at least two separate assays conducted on separate days.
For test [4], the target named is T1, KHK-C. Kind of test: Assay B: KHK assay with 1 nM KHK-C, absorbance for 3 hours. The note with it: read-out: IC50 (nM) Assay B 1 nM KHK-C; 1 nM KHK-C, 0.2 mM ATP, 3 hours; avg of (#) runs.
Description: as §1
The reaction was initiated with addition of 0.2 mM ATP, and the absorbance was monitored for 3 hours at 340 nm. Reaction rates and IC50 values were calculated as described above.
The mark [5] stands for this setting: read-out: IC50 (nM) Assay A 10 nM KHK-C.
Where [6] appears, read: read-out: IC50 (nM) Assay A (Table 4).

T1 sequence (P50053 whole entry): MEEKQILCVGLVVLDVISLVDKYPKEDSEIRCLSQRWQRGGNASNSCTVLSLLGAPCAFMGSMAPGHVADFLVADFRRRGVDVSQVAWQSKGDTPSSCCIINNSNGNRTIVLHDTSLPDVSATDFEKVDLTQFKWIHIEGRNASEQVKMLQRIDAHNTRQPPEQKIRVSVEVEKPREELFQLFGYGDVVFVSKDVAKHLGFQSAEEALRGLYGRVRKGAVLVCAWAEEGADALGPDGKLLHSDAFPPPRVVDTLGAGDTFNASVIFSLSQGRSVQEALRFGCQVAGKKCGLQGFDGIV
KHK-A, sequence (P50053 other isoform, or with tags, fused parts or gaps): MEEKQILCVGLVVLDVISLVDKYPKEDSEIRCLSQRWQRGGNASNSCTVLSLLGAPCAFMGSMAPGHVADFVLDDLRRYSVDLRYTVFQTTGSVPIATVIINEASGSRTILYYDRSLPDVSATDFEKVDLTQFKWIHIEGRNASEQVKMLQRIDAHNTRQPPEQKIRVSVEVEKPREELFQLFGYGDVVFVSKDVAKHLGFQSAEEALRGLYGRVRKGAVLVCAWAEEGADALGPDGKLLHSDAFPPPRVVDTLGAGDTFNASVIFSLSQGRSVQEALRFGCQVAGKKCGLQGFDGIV

One may read the IC50 as the concentration at which inhibition is half-maximal. For the compound `Cc1c(N2C[C@@H]3[C@@H](CC(=O)O)[C@@H]3C2)nc(N2C[C@@H](O)[C@@H]2C)nc1C(F)(F)F` [Example 24, [(1R,5S,6R)-3-{2-[(2S,3R)-3-hydroxy-2-methylazetidin-1-yl]-5-methyl-6-(trifluoromethyl)pyrimidin-4-yl}-3-azabicyclo[3.1.0]hex-6-yl]acetic acid], the concentration for half-maximal inhibition (IC50) in test [1] worked out at 11 nM; in test [2], 12.1 nM; in test [3] (setting [5]), 9.7 nM; in test [3] (setting [6]), 9.7 nM; in test [4], 3.3 nM.

On to `C[C@H]1[C@H](O)CN1c1nc(N2C[C@@H]3[C@@H](CC(=O)O)[C@@H]3C2)c(F)c(C(C)(F)F)c1C#N` [Example 50, [(1R,5S,6R)-3-{5-cyano-4-(1,1-difluoroethyl)-3-fluoro-6-[(2S,3R)-3-hydroxy-2-methylazetidin-1-yl]pyridin-2-yl}-3-azabicyclo[3.1.0]hex-6-yl]acetic acid], for which the IC50 worked out at 2.6 nM in test [1], 4.4 nM in test [3] (setting [5]), 4.4 nM in test [3] (setting [6]) and 1.5 nM in test [4].

The record behind these values is patent US10174007B2, “Substituted 3-azabicyclo[3.1.0]hexanes as ketohexokinase inhibitors” (Pfizer Inc., priority 2015, dated 2019).
